Read-outs that look alike come from different tables or passages of the source.
Key:
[1] = test system: inflammatory muscle tissue; settings: cited from earlier work
[2] = test system: MDA-MB231SA bone metastases; assay: PET/CT imaging in MDA-MB231SA/luc bone metastasis mouse model; format: in vivo; settings: PET/CT 25 days after inoculation
Source text: To conclude, [F-18]-D-FMT is useful for the detection of bone metastases.

786-O bone metastases = assay: PET/CT imaging in 786-O/luc bone metastasis mouse model; settings: for accumulation in bone metastases / osteolytic lesions: [F-18]-fluoride day 51, [F-18]-D-FMT day 65
Experimental: 786-O/luc cells and the MDA-MB231SA/luc cells were harvested from subconfluent cell culture flasks and resuspended in PBS (Biochrom AG) to a final concentration of 5×10^5 cells/100 μl. For intracardiac inoculations, 5-week-old female athymic nude mice (Harlan-Winkelmann GmbH, Borchen, Germany) were anesthetized with an intraperitoneal injection of 5% Rompun (Bayer HealthCare AG, Leverkusen, Germany)/10% Ketavet (Pfizer, Karlsruhe, Germany) in 0.9% NaCl at a dose of 0.1 ml/10 g body weight. Using an insulin syringe (BD Micro-Fine+Demi U-100, Becton Dickinson GmbH, Heidelberg, Germany), 5×10^5 786-O/luc cells in 100 μl PBS were inoculated into the left cardiac ventricle (i.c.) of anesthetized mice. Experiments were approved by the governmental review committee on animal care.
10 to 12 MBq [F-18]-fluoride or [F-18]-D-FMT were injected i.v. into the tail vein. 60 min after injection anesthesia was induced by isoflurane/O2 and twenty-minute micro-PET/computed tomography (CT) scans were obtained using an Inveon micro PET/CT scanner (Siemens).
51 days after the inoculation of the 786-O/luc cells into the mice, PET/CT imaging was performed with [F-18]-fluoride (FIG. 1 right side). […] The same mouse was imaged 2 weeks later (day 65) with [F-18]-D-FMT (FIG. 1 left side).

786-O/luc cells = assay: in vitro uptake of [F-18]-D-FMT into 786-O/luc cells; format: cell-based, human; settings: after 30 min
[3] = in vivo; cited from earlier work

| Molecule | uptake in inflammatory muscle tissue ([1]; in vivo) | uptake into the bone metastases [2] | uptake into regenerating and remineralizing bone / detection of osteoblastic activity (786-O bone metastases) | uptake into the healthy bone (786-O bone metastases; 60 min after i.v. injection) | accumulation in bone metastases / osteolytic lesions (786-O bone metastases) | uptake into the 786-O/luc cells (786-O/luc cells) [% applied dose/10^6 cells] | uptake in inflammatory muscle tissue ([1]; Turpentine-induced inflammation) | blood-borne tracer carried in red cells [3] |
| --- | --- | --- | --- | --- | --- | --- | --- | --- |
| 18F-fluorodeoxyglucose [FDG, reference compound] | taken up | – | – | – | – | – | – | – |
| N[C@H](Cc1ccc(OC[18F])cc1)C(=O)O [[F-18]-D-FMT, (R)-2-amino-3-(4[F-18]fluoromethoxy-phenyl)-propionic acid] | – | showed uptake into the bone metastases | not detected | no uptake | accumulated in all bone metastases imaged by [F-18]-fluoride | 12.8 | no uptake | – |
| [18FH] [[F-18]-fluoride, reference compound] | – | – | unspecific uptake | – | high accumulation in multiple osteolytic lesions | – | – | approximately 30% |
